Legend:
[1] = tested on: isolated TIL-derived CD4+ TCCs; test: All isolated TCCs tested against SIN3A* peptide: IFNγ ELISA; type: cell-based, human; design: unit not given beside the values
[2] = tested on: TCC88; test: Cytokine and chemokine secretion of TCC88 after peptide stimulation; type: cell-based, human; details: TCC88 supernatant after peptide stimulation; no peptide control subtracted; Fig. 3e
Description: Fig. 3 Bacteria-derived and microbiota-derived peptides can stimulate TCC88 as well as the tumour antigen. a, Peptides with the highest predicted stimulatory scores were identified by searching various databases (see Methods). Numbers of unique 10-mer peptides within each database, synthesized peptides, TCC88 stimulatory peptides and the corresponding percentage of stimulatory peptides within each database are shown. […] Cytokine and chemokine secretion of TCC88 was examined and compared upon stimulation with these three different antigens. A specific amount of each cytokine and chemokine (pg ml^−1) was calculated by subtracting the cytokines in the negative control cultures (no peptide control). f, Cytotoxicity of TCC88 against the autologous tumour cell line after stimulation with 2 µM of SIN3A* and HGM3 (data represent the mean percentage of two replicate wells). E:T, effector to target. g, TCC88 was tested with HGM3 (10 µM) or SIN3A* (10 µM) peptides or both together (each 10 µM), and ^3H-thymidine incorporation was measured after 3 days (data represent the mean SI value of three replicate wells ± s.e.m.). Also see Extended Data Figs. 3 and 4. Source data
Supernatants from each experiment were harvested a day before adding thymidine and frozen at −20 °C. Cytokines were measured using ELISA for human IFNγ ELISA MAX (BioLegend), human GM-CSF DuoSet ELISA (R&D Systems) and bead-based assays. A Synergy H1 hybrid multi-mode reader (Agilent) was used to measure the absorbance. The LEGENDplex Multi-analyte Flow Assay kit (BioLegend) is a 13-plex human TH cytokine panel, which includes IFNγ, TNF, IL-2, IL-4, IL-5, IL-6, IL-9, IL-10, IL-13, IL-17A, IL-17F, IL-21 and IL-22. […] LSR Fortessa Flow Cytometer (BD Biosciences) was used to measure cytokines, and data were analysed using FlowJo (Tree Star). The Human XL Cytokine Luminex Performance Assay Fixed Panel (R&D Systems) contains 45 analytes covering a broad range of various chemokines and cytokines.

Q: Ac-QPVEFNHAIHYVN-NH2 [SIN3A*] was tested. Which ΔIFN-γ ([1]; TCC4, sheet 2b) did it give?
A: The ΔIFN-γ was 149.53.

Q: What about the ΔIFN-γ ([1]; TCC11, sheet 2b) of the same substance?
A: Its ΔIFN-γ is 677.024.

Q: What about the ΔIFN-γ ([1]; TCC12, sheet 2b) of the same substance?
A: The ΔIFN-γ was 3046.79.

Q: What about the ΔIFN-γ ([1]; TCC13, sheet 2b) of the same substance?
A: Its ΔIFN-γ is 3192.25.

Q: And the ΔIFN-γ ([1]; TCC15, sheet 2b)?
A: Its ΔIFN-γ is 3025.62.

Q: What about the ΔIFN-γ ([1]; TCC16, sheet 2b) of the same substance?
A: Its ΔIFN-γ is 180.455.

Q: What about the ΔIFN-γ ([1]; TCC20, sheet 2b) of the same substance?
A: The ΔIFN-γ was 364.759.

Q: What about the ΔIFN-γ ([1]; TCC29, sheet 2b) of the same substance?
A: Its ΔIFN-γ is 1013.6.

Q: And the ΔIFN-γ ([1]; TCC31, sheet 2b)?
A: Its ΔIFN-γ is 514.2.

Q: What about the ΔIFN-γ ([1]; TCC33, sheet 2b) of the same substance?
A: The ΔIFN-γ was 2998.1.

Q: And the ΔIFN-γ ([1]; TCC35, sheet 2b)?
A: Its ΔIFN-γ is 228.964.

Q: What about the ΔIFN-γ ([1]; TCC38, sheet 2b) of the same substance?
A: Its ΔIFN-γ is 2702.02.

Q: And the ΔIFN-γ ([1]; TCC43, sheet 2b)?
A: Its ΔIFN-γ is 1674.62.

Q: And the ΔIFN-γ ([1]; TCC47, sheet 2b)?
A: The ΔIFN-γ was 2470.16.

Q: And the ΔIFN-γ ([1]; TCC52, sheet 2b)?
A: Its ΔIFN-γ is 3139.72.

Q: And the ΔIFN-γ ([1]; TCC56, sheet 2b)?
A: Its ΔIFN-γ is 642.429.

Q: What about the ΔIFN-γ ([1]; TCC57, sheet 2b) of the same substance?
A: The ΔIFN-γ was 2874.97.

Q: What about the ΔIFN-γ ([1]; TCC60, sheet 2b) of the same substance?
A: The ΔIFN-γ was 2990.72.

Q: And the ΔIFN-γ ([1]; TCC63, sheet 2b)?
A: The ΔIFN-γ was 2437.29.

Q: And the ΔIFN-γ ([1]; TCC64, sheet 2b)?
A: The ΔIFN-γ was 999.502.

Q: What about the ΔIFN-γ ([1]; TCC68, sheet 2b) of the same substance?
A: Its ΔIFN-γ is 1874.1.

Q: What about the ΔIFN-γ ([1]; TCC71, sheet 2b) of the same substance?
A: Its ΔIFN-γ is 665.867.

Q: What about the ΔIFN-γ ([1]; TCC74, sheet 2b) of the same substance?
A: The ΔIFN-γ was 114.375.

Q: What about the ΔIFN-γ ([1]; TCC75, sheet 2b) of the same substance?
A: The ΔIFN-γ was 2585.8.

Q: And the ΔIFN-γ ([1]; TCC76, sheet 2b)?
A: The ΔIFN-γ was 3066.75.

Q: What about the ΔIFN-γ ([1]; TCC80, sheet 2b) of the same substance?
A: The ΔIFN-γ was 218.522.

Q: And the ΔIFN-γ ([1]; TCC88, sheet 2b)?
A: Its ΔIFN-γ is 3049.73.

Q: And the ΔIFN-γ ([1]; TCC90, sheet 2b)?
A: Its ΔIFN-γ is 3011.57.

Q: And the ΔIFN-γ ([1]; TCC91, sheet 2b)?
A: The ΔIFN-γ was 1519.81.

Q: And the ΔIFN-γ ([1]; TCC92, sheet 2b)?
A: Its ΔIFN-γ is 2090.54.

Q: What about the ΔIFN-γ ([1]; TCC93, sheet 2b) of the same substance?
A: The ΔIFN-γ was 2670.59.

Q: What about the ΔIFN-γ ([1]; TCC94, sheet 2b) of the same substance?
A: Its ΔIFN-γ is 2350.89.

Q: And the ΔIFN-γ ([1]; TCC96, sheet 2b)?
A: The ΔIFN-γ was 2552.89.

Q: What about the ΔIFN-γ ([1]; TCC97, sheet 2b) of the same substance?
A: The ΔIFN-γ was 2298.23.

Q: And the ΔIFN-γ ([1]; TCC98, sheet 2b)?
A: Its ΔIFN-γ is 2713.07.

Q: What about the ΔIFN-γ ([1]; TCC99, sheet 2b) of the same substance?
A: The ΔIFN-γ was 3298.51.

Q: What about the ΔIFN-γ ([1]; TCC101, sheet 2b) of the same substance?
A: The ΔIFN-γ was 3002.86.

Q: And the ΔIFN-γ ([1]; TCC102, sheet 2b)?
A: Its ΔIFN-γ is 3070.31.

Q: What about the ΔIFN-γ ([1]; TCC103, sheet 2b) of the same substance?
A: Its ΔIFN-γ is 2311.95.

Q: What about the ΔIFN-γ ([1]; TCC104, sheet 2b) of the same substance?
A: The ΔIFN-γ was 2494.03.

Q: And the ΔIFN-γ ([1]; TCC107, sheet 2b)?
A: The ΔIFN-γ was 2341.01.

Q: And the ΔIFN-γ ([1]; TCC109, sheet 2b)?
A: Its ΔIFN-γ is 2148.29.

Q: And the ΔIFN-γ ([1]; TCC110, sheet 2b)?
A: Its ΔIFN-γ is 2115.13.

Q: What about the ΔIFN-γ ([1]; TCC111, sheet 2b) of the same substance?
A: Its ΔIFN-γ is 2750.31.

Q: What about the ΔIFN-γ ([1]; TCC112, sheet 2b) of the same substance?
A: Its ΔIFN-γ is 334.245.

Q: What about the ΔIFN-γ ([1]; TCC113, sheet 2b) of the same substance?
A: Its ΔIFN-γ is 2127.79.

Q: And the ΔIFN-γ ([1]; TCC114, sheet 2b)?
A: Its ΔIFN-γ is 270.204.

Q: What about the ΔIFN-γ ([1]; TCC115, sheet 2b) of the same substance?
A: Its ΔIFN-γ is 2141.31.

Q: And the ΔIFN-γ ([1]; TCC116, sheet 2b)?
A: Its ΔIFN-γ is 2065.23.

Q: What about the ΔIFN-γ ([1]; TCC117, sheet 2b) of the same substance?
A: The ΔIFN-γ was 2609.06.

Q: What about the ΔIFN-γ ([1]; TCC120, sheet 2b) of the same substance?
A: Its ΔIFN-γ is 5141.59.

Q: And the ΔIFN-γ ([1]; TCC121, sheet 2b)?
A: Its ΔIFN-γ is 3587.93.

Q: What about the ΔIFN-γ ([1]; TCC124, sheet 2b) of the same substance?
A: Its ΔIFN-γ is 8256.17.

Q: And the ΔIFN-γ ([1]; TCC125, sheet 2b)?
A: The ΔIFN-γ was 202.234.

Q: What about the ΔIFN-γ ([1]; TCC126, sheet 2b) of the same substance?
A: Its ΔIFN-γ is 7530.28.

Q: What about the ΔIFN-γ ([1]; TCC127, sheet 2b) of the same substance?
A: Its ΔIFN-γ is 9381.79.

Q: And the ΔIFN-γ ([1]; TCC128, sheet 2b)?
A: The ΔIFN-γ was 4427.79.

Q: What about the ΔIFN-γ ([1]; TCC129, sheet 2b) of the same substance?
A: Its ΔIFN-γ is 4034.06.

Q: And the ΔIFN-γ ([1]; TCC130, sheet 2b)?
A: The ΔIFN-γ was 4723.17.

Q: What about the ΔIFN-γ ([1]; TCC131, sheet 2b) of the same substance?
A: The ΔIFN-γ was 125.708.

Q: And the ΔIFN-γ ([1]; TCC132, sheet 2b)?
A: The ΔIFN-γ was 7560.44.

Q: And the ΔIFN-γ ([1]; TCC133, sheet 2b)?
A: Its ΔIFN-γ is 4444.38.

Q: And the ΔIFN-γ ([1]; TCC134, sheet 2b)?
A: The ΔIFN-γ was 2468.

Q: And the ΔIFN-γ ([1]; TCC135, sheet 2b)?
A: Its ΔIFN-γ is 4703.02.

Q: What about the ΔIFN-γ ([1]; TCC137, sheet 2b) of the same substance?
A: Its ΔIFN-γ is 3613.61.

Q: And the ΔIFN-γ ([1]; TCC138, sheet 2b)?
A: Its ΔIFN-γ is 0.

Q: What about the CCL20/MIP-3α [2] of the same substance?
A: The CCL20/MIP-3α was 15.37 pg/mL.

Q: What about the “CD40 Ligand” value [2] of the same substance?
A: The value was 2926.92 pg/mL.

Q: And the CXCL1/GROα [2]?
A: The CXCL1/GROα was 71.75 pg/mL.

Q: What about the CXCL2/GROβ [2] of the same substance?
A: Its CXCL2/GROβ is 125.05 pg/mL.

Q: What about the CXCL8/IL-8 [2] of the same substance?
A: The CXCL8/IL-8 was 0 pg/mL.

Q: What about the CXCL10/IP-10 [2] of the same substance?
A: Its CXCL10/IP-10 is 22.77 pg/mL.

Q: And the “Flt-3 Ligand” value [2]?
A: Its value is 138.99 pg/mL.

Q: And the Fractalkine [2]?
A: The Fractalkine was 649.3 pg/mL.

Q: What about the GM-CSF [2] of the same substance?
A: Its GM-CSF is 12306.4 pg/mL.

Q: And the “Granzyme B” value [2]?
A: The value was 3726.29 pg/mL.

Q: And the IFN-α [2]?
A: The IFN-α was 6.21 pg/mL.

Q: What about the IFN-γ [2] of the same substance?
A: The IFN-γ was 2158.92 pg/mL.

Q: What about the IL-1rα [2] of the same substance?
A: Its IL-1rα is 2936.96 pg/mL.

Q: What about the IL-1α [2] of the same substance?
A: Its IL-1α is 18.71 pg/mL.

Q: What about the IL-1β [2] of the same substance?
A: Its IL-1β is 19.49 pg/mL.

Q: What about the IL-2 [2] of the same substance?
A: The IL-2 was 1202.18 pg/mL.

Q: And the IL-3 [2]?
A: Its IL-3 is 486.43 pg/mL.

Q: And the IL-4 [2]?
A: Its IL-4 is 244.81 pg/mL.

Q: What about the IL-5 [2] of the same substance?
A: The IL-5 was 13.04 pg/mL.

Q: What about the IL-6 [2] of the same substance?
A: The IL-6 was 272.8 pg/mL.

Q: And the IL-7 [2]?
A: The IL-7 was 2.58 pg/mL.

Q: What about the IL-10 [2] of the same substance?
A: Its IL-10 is 469.8 pg/mL.

Q: What about the IL-12p70 [2] of the same substance?
A: The IL-12p70 was 34.04 pg/mL.

Q: And the IL-13 [2]?
A: Its IL-13 is 1544.08 pg/mL.

Q: What about the IL-15 [2] of the same substance?
A: The IL-15 was 2.67 pg/mL.

Q: And the IL-17A [2]?
A: The IL-17A was 3.91 pg/mL.

Q: And the IL-17E/IL-25 [2]?
A: Its IL-17E/IL-25 is 6.04 pg/mL.

Q: What about the IL-33 [2] of the same substance?
A: Its IL-33 is 26.68 pg/mL.

Q: What about the TNF-α [2] of the same substance?
A: Its TNF-α is 10260.2 pg/mL.

— paper PMC10208956, “Microbial peptides activate tumour-infiltrating lymphocytes in glioblastoma” (Nature, 2023)
